Assay results published in BindingDB's records for doi:10.1021/jm960455s (Bristol-Myers Squibb Pharmaceutical Research Institute, 1997).
Non-standard residues stand in square brackets, D forms with d. Residues, ends and D or L forms follow the SMILES beside them. *: point of attachment. Phe(4-guanidino) = N=C(N)Nc1ccc(C[CH](N)C(=O)O)cc1; Phe(4-F) = N[CH](Cc1ccc(F)cc1)C(=O)O; 2Nal = N[C@@H](Cc1ccc2ccccc2c1)C(=O)O; Benzoyl(4-Cl) = O=C(c1ccc(Cl)cc1)*; X5 = O=C(c1cc2ccccc2[nH]1)*; βAla = NCCC(=O)O

Experiments:
[1] = Effective concentration for stimulation of platelet aggregation
[2] = Concentration of compound required to inhibit agonist (SFLLRNP-NH2, at 3 uM) induced platelet aggregation by 50%
[3] = as above; remark: listed apart in the source

With COc1ccc(C[C@H](NC(=O)[C@@H](N)CO)C(=O)N[C@@H](CC(C)C)C(=O)N[C@@H](CC(C)C)C(=O)N[C@@H](CCCN=C(N)N)C(N)=O)cc1 as the compound, how does the EC50 [1] read?
The EC50 was 720 nM.

Which EC50 [1] does the source give for CC(C)CC(NC(=O)C(Cc1ccc(N=C(N)N)cc1)NC(=O)C(Cc1ccc(F)cc1)NC(=O)c1cc2ccccc2[nH]1)C(=O)NC(CCCNC(=N)N)C(N)=O (stereo not drawn) [1H-Indole-2-carboxylic acid [1-[1-[1-(1-carbamoyl-4-guanidino-butylcarbamoyl)-3-methyl-butylcarbamoyl]-2-(4-guanidino-phenyl)-ethylcarbamoyl]-2-(4-fluoro-phenyl)-ethyl]-amide] (X5-[Phe(4-F)][Phe(4-guanidino)]LR-NH2; configuration not given here) here?
The EC50 was 1800 nM.

Which IC50 [2] does the source give for CC(=O)N(C(=O)C=Cc1cccc(Cl)c1)C(Cc1ccc(F)cc1)C(=O)NC(Cc1ccc(N=C(N)N)cc1)C(=O)NC(CC(C)C)C(=O)NC(CCCNC(=N)N)C(N)=O (stereo not drawn) [2-[2-[2-{Acetyl-[(E)-3-(3-chloro-phenyl)-acryloyl]-amino}-3-(4-fluoro-phenyl)-propionylamino]-3-(4-guanidino-phenyl)-propionylamino]-4-methyl-pentanoic acid (1-carbamoyl-4-guanidino-butyl)-amide] here?
The IC50 was 80 nM.

With CC(=O)N(C(=O)C=Cc1ccccc1)C(Cc1ccc(F)cc1)C(=O)NC(Cc1ccc(N)cc1)C(=O)NC(CC(C)C)C(=O)NC(CCCNC(=N)N)C(N)=O (stereo not drawn) [2-[2-[2-{Acetyl-[(E)-(3-phenyl-acryloyl)]-amino}-3-(4-fluoro-phenyl)-propionylamino]-3-(4-amino-phenyl)-propionylamino]-4-methyl-pentanoic acid (1-carbamoyl-4-guanidino-butyl)-amide] as the compound, how does the EC50 [1] read?
Its EC50 is 60000 nM.

With CC(=O)NCCC(=O)N[C@@H](Cc1ccc(F)cc1)C(=O)N[C@@H](Cc1ccc2ccccc2c1)C(=O)N[C@@H](CC(C)C)C(=O)N[C@@H](CCCN=C(N)N)C(N)=O [2-{(R)-2-[2-(3-Acetylamino-propionylamino)-3-(4-fluoro-phenyl)-propionylamino]-3-naphthalen-2-yl-propionylamino}-4-methyl-pentanoic acid (1-carbamoyl-4-guanidino-butyl)-amide] (Ac-[βAla][Phe(4-F)][2Nal]LR-NH2) as the compound, how does the EC50 [1] read?
Its EC50 is 270 nM.

Which EC50 [1] does the source give for CC(=O)N(C(=O)C=Cc1ccccc1)C(Cc1ccc(F)cc1)C(=O)NC(=O)NCCCC(NC(=O)C(CC(C)C)NC(=O)C(N)CCCNC(=N)N)C(=O)O (stereo not drawn) [5-{3-[2-{Acetyl-[(E)-(3-phenyl-acryloyl)]-amino}-3-(4-fluoro-phenyl)-propionyl]-ureido}-2-[2-(2-amino-5-guanidino-pentanoylamino)-4-methyl-pentanoylamino]-pentanoic acid] here?
Its EC50 is 67000 nM.

For CC(=O)N(C(=O)c1ccc(-c2ccccc2)cc1)C(Cc1ccc(F)cc1)C(=O)NC(Cc1ccc(N=C(N)N)cc1)C(=O)NC(CC(C)C)C(=O)NC(CCCNC(=N)N)C(N)=O (stereo not drawn) [Biphenyl-4-carboxylic acid acetyl-[1-[1-[1-(1-carbamoyl-4-guanidino-butylcarbamoyl)-3-methyl-butylcarbamoyl]-2-(4-guanidino-phenyl)-ethylcarbamoyl]-2-(4-fluoro-phenyl)-ethyl]-amide], which IC50 [3] is on record?
The IC50 was 430 nM.

For CC(C)CC(NC(=O)C(Cc1ccc(N=C(N)N)cc1)NC(=O)C(Cc1ccc(F)cc1)NC(=O)c1ccc(Cl)cc1)C(=O)NC(CCCNC(=N)N)C(N)=O (stereo not drawn) [N-[1-[1-[1-(1-Carbamoyl-4-guanidino-butylcarbamoyl)-3-methyl-butylcarbamoyl]-2-(4-guanidino-phenyl)-ethylcarbamoyl]-2-(4-fluoro-phenyl)-ethyl]-4-chloro-benzamide] ({Benzoyl(4-Cl)}-[Phe(4-F)][Phe(4-guanidino)]LR-NH2; configuration not given here), which EC50 [1] is on record?
The EC50 was 3700 nM.
